Test results from ChEMBL document CHEMBL1144378, “Analogues of the neuroprotective tripeptide Gly-Pro-Glu (GPE): synthesis and structure-activity relationships” (Bioorg Med Chem Lett, 2005).
The source made the active and inactive calls. The rule behind the calls is not given here.

Target: Glutamate NMDA receptor (Rattus norvegicus) (UniProt P35439+Q00959+Q00960+Q00961+Q62645+Q8VHN2+Q9R1M7)
Test: Displacement of L-[3H]glutamate from N-methyl-D-aspartate glutamate receptor in rat brain synaptic membranes; No displacement up to 100 uM
Type: cell membranes
Settings: Membrane

Activity | SMILES
inactive | NCC(=O)N1CCC[C@H]1C(=O)N[C@@H](CCCC(=O)O)C(=O)O
inactive | NCC(=O)N1CCC[C@@H]1C(=O)N[C@@H](CCC(=O)O)C(=O)O
inactive | NCC(=O)N1CCC[C@@H]1C(=O)N[C@H](CCC(=O)O)C(=O)O
inactive | NCC(=O)N1CCC[C@H]1C(=O)N[C@H](CCCC(=O)O)C(=O)O
inactive | NCC(=O)N1CCC[C@H]1C(=O)N[C@@H](CC(=O)O)C(=O)O
inactive | NCC(=O)N1CCC[C@H]1C(=O)N[C@H](CCC(=O)O)C(=O)O

More lines, now with the values behind:

SMILES | Activity
NCC(=O)N1CSC[C@@H]1C(=O)N[C@@H](CCC(=O)O)C(=O)O | inactive
NCC(=O)N1CCC[C@H]1C(=O)N[C@H](CC(=O)O)C(=O)O | inactive
CC1(C)SC[C@H](C(=O)N[C@@H](CCC(=O)O)C(=O)O)N1C(=O)CN | inactive

Target: Glutamate NMDA receptor
Test: Displacement of L-[3H]glutamate from N-methyl-D-aspartate glutamate receptor in rat brain synaptic membranes
Type: cell membranes, Membrane
Settings: not given

SMILES | Ki
N[C@H](CCCP(=O)(O)O)C(=O)O | 3.83 µM
